In patent US20220204476A1, “RNA VIRUS INHIBITOR COMPOUNDS AND USES THEREOF” (The Governors of the University of Alberta, priority 2020, published 2022):

Columns and labels:
SARS-CoV-2 3CLP = SARS-CoV-2 3CLP (Severe acute respiratory syndrome coronavirus 2, UniProt P0DTD1); test: SARS-CoV-2 3CLP inhibition, FRET-based cleavage assay; assay type: biochemical; conditions: 80 nM SARS-CoV-2 3CLP, 100 μM substrate, 37° C., 10 min incubation, pH 7.8; read-out: 3CL Protease IC50
[1] = Cytotoxicity, CellTiter-Glo luminescent cell viability assay; conditions: human (A549) and green monkey (Vero E6)
SARS-CoV-2 = SARS-CoV-2 in vitro plaque reduction assay in Vero E6 cells; assay type: cell-based; conditions: Severe acute respiratory syndrome coronavirus 2, Vero C1008, MOI 0.0001 pfu/cell, plaques counted after 48 h, >5 μM = did not reduce plaque numbers by half at 10 μM, read-out: SARS-CoV-2 Antiviral EC50

Compound | IC50 (SARS-CoV-2 3CLP) | CC50 at 24 h [1] | EC50 (SARS-CoV-2)
COc1cccc2[nH]c(C(=O)N[C@@H](CC(C)C)C(=O)N[C@@H](C[C@@H]3CCCNC3=O)C(=O)COC(=O)c3c(Cl)cccc3Cl)cc12 [Compound 5, (3S)-3-{[N-(4-methoxy-1H-indole-2-carbonyl)-L-leucyl]amino}-2-oxo-4-[(3S)-2-oxopiperidin-3-yl]butyl 2,6-dichlorobenzoate] | 6.4 nM | > 200000 nM | –
COc1cccc2[nH]c(C(=O)N[C@@H](CC(C)C)C(=O)N[C@@H](C[C@@H]3CCCNC3=O)C(=O)COC(=O)c3c(C(F)(F)F)cccc3C(F)(F)F)cc12 [Compound 6, (3S)-3-{[N-(4-methoxy-1H-indole-2-carbonyl)-L-leucyl]amino}-2-oxo-4-[(3S)-2-oxopiperidin-3-yl]butyl 2,6-bis(trifluoromethyl)benzoate] | 1 nM | > 200000 nM | 210 nM
COc1cccc2[nH]c(C(=O)N[C@@H](CC(C)C)C(=O)N[C@@H](C[C@@H]3CCCNC3=O)C(=O)COC(=O)C(C)(C)C(F)(F)F)cc12 [Compound 13, (3S)-3-{[N-(4-methoxy-1H-indole-2-carbonyl)-L-leucyl]amino}-2-oxo-4-[(3S)-2-oxopiperidin-3-yl]butyl 3,3,3-trifluoro-2,2-dimethylpropanoate] | 20 nM | > 200000 nM | > 5000 nM
COc1cccc2[nH]c(C(=O)N[C@@H](CC(C)C)C(=O)N[C@@H](C[C@@H]3CCCNC3=O)C(=O)COC(=O)c3c(C(F)(F)F)cc(C)nc3C)cc12 [Compound 18, (3S)-3-{[N-(4-methoxy-1H-indole-2-carbonyl)-L-leucyl]amino}-2-oxo-4-[(3S)-2-oxopiperidin-3-yl]butyl 2,6-dimethyl-4-(trifluoromethyl)pyridine-3-carboxylate] | 14 nM | > 200000 nM | 460 nM
COc1cccc2[nH]c(C(=O)N[C@@H](CC(C)C)C(=O)N[C@H](C#N)C[C@@H]3CCCNC3=O)cc12 [Compound 34, N-[(2S)-1-({(1S)-1-cyano-2-[(3S)-2-oxopiperidin-3-yl]ethyl}amino)-4-methyl-1-oxopentan-2-yl]-4-methoxy-1H-indole-2-carboxamide] | 13 nM | > 200000 nM | 2700 nM
COc1cc(Cl)cc2[nH]c(C(=O)N[C@@H](CC(C)(C)C)C(=O)N[C@H](C#N)C[C@@H]3CCCNC3=O)cc12 [Compound 35, 6-chloro-N-[(2S)-1-({(1S)-1-cyano-2-[(3S)-2-oxopiperidin-3-yl]ethyl}amino)-4,4-dimethyl-1-oxopentan-2-yl]-4-methoxy-1H-indole-2-carboxamide] | – | > 200000 nM | 1500 nM
CC(C)C[C@H](NC(=O)c1cc2c(OC(F)(F)F)cccc2[nH]1)C(=O)N[C@H](C#N)C[C@@H]1CCCNC1=O [Compound 40, N-[(2S)-1-({(1S)-1-cyano-2-[(3S)-2-oxopiperidin-3-yl]ethyl}amino)-4-methyl-1-oxopentan-2-yl]-4-(trifluoromethoxy)-1H-indole-2-carboxamide] | 14 nM | > 50000 nM | 2600 nM
CCOc1cccc2[nH]c(C(=O)N[C@@H](CC(C)C)C(=O)N[C@H](C#N)C[C@@H]3CCCNC3=O)cc12 [Compound 69, N-[(2S)-1-({(1S)-1-cyano-2-[(3S)-2-oxopiperidin-3-yl]ethyl}amino)-4-methyl-1-oxopentan-2-yl]-4-ethoxy-1H-indole-2-carboxamide] | 24 nM | > 200000 nM | 4800 nM
COc1cccc2[nH]c(C(=O)N[C@@H](CC(C)(C)C)C(=O)N[C@H](C#N)C[C@@H]3CCCNC3=O)cc12 [Compound 70, N-[(2S)-1-({(1S)-1-cyano-2-[(3S)-2-oxopiperidin-3-yl]ethyl}amino)-4,4-dimethyl-1-oxopentan-2-yl]-4-methoxy-1H-indole-2-carboxamide] | – | > 200000 nM | > 5000 nM
CC(C)C[C@H](NC(=O)c1cc2c3c(ccc2[nH]1)CCO3)C(=O)N[C@H](C#N)C[C@@H]1CCCNC1=O [Compound 71, N-[(2S)-1-({(1S)-1-cyano-2-[(3S)-2-oxopiperidin-3-yl]ethyl}amino)-4-methyl-1-oxopentan-2-yl]-3,6-dihydro-2H-furo[2,3-e]indole-7-carboxamide] | 49 nM | > 200000 nM | > 5000 nM
Cc1cc(C)c(C(=O)OCC(=O)[C@H](C[C@@H]2CCCNC2=O)NC(=O)[C@H](CC(C)C)NC(=O)[C@H]2CCCO2)c(C)n1 [Compound 73, (3S)-2-oxo-3-({N-[(2R)-oxolane-2-carbonyl]-L-leucyl}amino)-4-[(3S)-2-oxopiperidin-3-yl]butyl 2,4,6-trimethylpyridine-3-carboxylate] | 190 nM | > 200000 nM | < 1000 nM
CC(C)C[C@H](NC(=O)[C@H]1CCCO1)C(=O)N[C@@H](C[C@@H]1CCNC1=O)C(=O)COC(=O)c1c(C(F)(F)F)cccc1C(F)(F)F [Compound 74, (3S)-2-oxo-3-({N-[(2R)-oxolane-2-carbonyl]-L-leucyl}amino)-4-[(3S)-2-oxopyrrolidin-3-yl]butyl 2,6-bis(trifluoromethyl)benzoate] | 110 nM | > 200000 nM | < 1000 nM
CC(C)(C)C[C@H](NC(=O)[C@@H]1CCCN1)C(=O)N[C@H](C#N)C[C@@H]1CCCNC1=O [Compound 90, prolyl-N-{(1S)-1-cyano-2-[(3S)-2-oxopiperidin-3-yl]ethyl}-4-methyl-L-leucinamide] | 1100 nM | – | > 5000 nM
CC(C)C[C@H](NCc1ncco1)C(=O)N[C@H](C#N)C[C@@H]1CCCNC1=O [Compound 91, N-{(1S)-1-cyano-2-[(3S)-2-oxopiperidin-3-yl]ethyl}-N^2-[(1,3-oxazol-2-yl)methyl]-L-leucinamide] | 37000 nM | – | > 5000 nM
CC(C)C[C@H](NC[C@@H]1CCCO1)C(=O)N[C@H](C#N)C[C@@H]1CCCNC1=O [Compound 92, N-{(1S)-1-cyano-2-[(3S)-2-oxopiperidin-3-yl]ethyl}-N^2-{[(2S)-oxolan-2-yl]methyl}-L-leucinamide] | 104000 nM | – | > 5000 nM
COc1cccc2oc(C(=O)N[C@@H](CC(C)(C)C)C(=O)N[C@H](C#N)C[C@@H]3CCCNC3=O)cc12 [Compound 93, N-[(2S)-1-({(1S)-1-cyano-2-[(3S)-2-oxopiperidin-3-yl]ethyl}amino)-4,4-dimethyl-1-oxopentan-2-yl]-4-methoxy-1-benzofuran-2-carboxamide] | 240 nM | – | > 5000 nM
N#C[C@H](C[C@@H]1CCNC1=O)NC(=O)[C@H](CC1CCCCC1)NC(=O)OCc1cccc(Cl)c1 [Compound 94, (3-chlorophenyl)methyl [(2S)-1-({(1S)-1-cyano-2-[(3S)-2-oxopyrrolidin-3-yl]ethyl}amino)-3-cyclohexyl-1-oxopropan-2-yl]carbamate] | 160 nM | – | > 5000 nM
CC(C)C[C@H](NCC1CCCCC1)C(=O)N[C@H](C#N)C[C@@H]1CCCNC1=O [Compound 95, N-{(1S)-1-cyano-2-[(3S)-2-oxopiperidin-3-yl]ethyl}-N^2-(cyclohexylmethyl)-L-leucinamide] | 97000 nM | – | > 5000 nM
COc1nccc2[nH]c(C(=O)N[C@@H](CC(C)(C)C)C(=O)N[C@H](C#N)C[C@@H]3CCCNC3=O)cc12 [Compound 99, N-[(2S)-1-({(1S)-1-cyano-2-[(3S)-2-oxopiperidin-3-yl]ethyl}amino)-4,4-dimethyl-1-oxopentan-2-yl]-4-methoxy-1H-pyrrolo[3,2-c]pyridine-2-carboxamide] | 22 nM | – | > 5000 nM
COc1nccc2c1cc(C(=O)N[C@@H](CC(C)(C)C)C(=O)N[C@H](C#N)C[C@@H]1CCCNC1=O)n2C [Compound 100, N-[(2S)-1-({(1S)-1-cyano-2-[(3S)-2-oxopiperidin-3-yl]ethyl}amino)-4,4-dimethyl-1-oxopentan-2-yl]-4-methoxy-1-methyl-1H-pyrrolo[3,2-c]pyridine-2-carboxamide] | 220 nM | – | > 5000 nM
CC(C)(C)C[C@H](NC(=O)[C@H]1Cc2ccccc2N1C(=O)OCc1ccccc1)C(=O)N[C@H](C#N)C[C@@H]1CCCNC1=O [Compound 101, benzyl (2R)-2-{[(2S)-1-({(1S)-1-cyano-2-[(3S)-2-oxopiperidin-3-yl]ethyl}amino)-4,4-dimethyl-1-oxopentan-2-yl]carbamoyl}-2,3-dihydro-1H-indole-1-carboxylate] | 180 nM | – | > 5000 nM
CC(C)(C)C[C@H](NC(=O)[C@H]1Cc2ccccc2N1)C(=O)N[C@H](C#N)C[C@@H]1CCCNC1=O [Compound 102, (2R)—N-[(2S)-1-({(1S)-1-cyano-2-[(3S)-2-oxopiperidin-3-yl]ethyl}amino)-4,4-dimethyl-1-oxopentan-2-yl]-2,3-dihydro-1H-indole-2-carboxamide] | 140 nM | – | > 5000 nM
CC(C)C[C@H](NC(=O)[C@@H]1C[C@H]1c1ccccc1)C(=O)N[C@H](C#N)C[C@@H]1CCCNC1=O [Compound 106, N-{(1S)-1-cyano-2-[(3S)-2-oxopiperidin-3-yl]ethyl}-N^2-[(1R,2R)-2-phenylcyclopropane-1-carbonyl]-L-leucinamide] | 69 nM | – | > 5000 nM
